Reference: ChEMBL document CHEMBL1201862, “PubChem BioAssay data set” (2004)
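Results reflect a 48-hour exposure of cells in 96-well plates to compound at five concentrations. GI50: concentration for 50% inhibition of growth.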 Activity calls are given as the source filed them. No stated cut-off is given here; in the data, active = GI50 up to about 1.1 µM and inactive = higher.

Experiments:
Assay in all cases: NCI tumour cell line growth inhibition, 48 h
KM12 = system: KM12
RPMI-8226 = system: RPMI-8226
MDA-MB-435 = system: MDA-MB-435
NCI-H460 = system: NCI-H460
SK-MEL-28 = system: SK-MEL-28
HOP-62 = system: HOP-62
SF-295 = system: SF-295
786-0 = system: 786-0
A498 = system: A498
DU-145 = system: DU-145
UO-31 = system: UO-31
OVCAR-5 = system: OVCAR-5
M14 = system: M14
UACC-257 = system: UACC-257
SK-OV-3 = system: SK-OV-3
SW-620 = system: SW-620
NCI/ADR-RES = system: NCI/ADR-RES
SR = system: SR
SN12C = system: SN12C
NCI-H226 = system: NCI-H226

Measured: GI50

O=c1cc2oc3ccc4ccccc4c3cc-2c(=O)[nH]1
inactive: KM12 20 µM | RPMI-8226 2.96 µM | MDA-MB-435 11 µM | NCI-H460 22.9 µM | SK-MEL-28 17.9 µM | HOP-62 10.8 µM | SF-295 20.7 µM | 786-0 13.8 µM | A498 16.1 µM | DU-145 13.6 µM | UO-31 11 µM | OVCAR-5 17.6 µM | M14 18.2 µM | UACC-257 16.4 µM | SK-OV-3 20.3 µM | SW-620 1.87 µM | NCI/ADR-RES 17.5 µM | SR 2.62 µM

NS(=O)(=O)c1ccc(-c2ccc([As](=O)(O)O)cc2)cc1
inactive: KM12 > 100 µM | RPMI-8226 > 100 µM | MDA-MB-435 > 100 µM | SN12C > 100 µM | NCI-H460 > 100 µM | SK-MEL-28 > 100 µM | HOP-62 78.3 µM | SF-295 > 100 µM | 786-0 > 100 µM | DU-145 > 100 µM | UO-31 > 100 µM | OVCAR-5 > 100 µM | M14 > 100 µM | UACC-257 32.6 µM | SK-OV-3 > 100 µM | SW-620 > 100 µM | NCI/ADR-RES > 100 µM | NCI-H226 > 100 µM | SR > 100 µM

CCC(C)C(=O)OC1CC2(C)C(c3ccoc3)OC(=O)CC23OC2(C)OC34C(OC(=O)C(C)C)C3(O)C(OC(=O)C5(C)OC5C)C5(C)CC3(O)C(C)(C5CC(=O)OC)C14O2 (stereo not given)
inactive: KM12 43 µM | MDA-MB-435 83 µM | SN12C > 100 µM | NCI-H460 36.3 µM | SK-MEL-28 > 100 µM | SF-295 41.1 µM | 786-0 > 100 µM | A498 75.5 µM | DU-145 68.2 µM | UO-31 35.9 µM | OVCAR-5 91.2 µM | M14 42.9 µM | UACC-257 79.4 µM | SK-OV-3 > 100 µM | SW-620 50 µM | NCI/ADR-RES 21.7 µM | NCI-H226 51.6 µM | SR 24.1 µM

C=C1C2CCC3(CCC4C5(C)CCCC4(C=[N+](CCO)C5)C3C2)C1O (stereo not given)
inactive: KM12 > 100 µM | RPMI-8226 > 100 µM | MDA-MB-435 > 100 µM | SN12C > 100 µM | NCI-H460 > 100 µM | SK-MEL-28 > 100 µM | HOP-62 > 100 µM | SF-295 > 100 µM | 786-0 > 100 µM | A498 > 100 µM | DU-145 > 100 µM | UO-31 > 100 µM | OVCAR-5 > 100 µM | M14 > 100 µM | UACC-257 > 100 µM | SK-OV-3 > 100 µM | SW-620 > 100 µM | NCI/ADR-RES > 100 µM | SR > 100 µM

Cc1ccc(S(=O)(=O)N(CCN2C(=O)c3ccccc3C2=O)c2cc3c4c(c2)Oc2cc(N(CCN5C(=O)c6ccccc6C5=O)S(=O)(=O)c5ccc(C)cc5)cc5c2C4(C)c2c(cc(N(CCN4C(=O)c6ccccc6C4=O)S(=O)(=O)c4ccc(C)cc4)cc2O5)O3)cc1
inactive: KM12 > 100 µM | RPMI-8226 > 100 µM | MDA-MB-435 > 100 µM | SN12C > 100 µM | NCI-H460 > 100 µM | SK-MEL-28 > 100 µM | HOP-62 > 100 µM | SF-295 > 100 µM | 786-0 > 100 µM | DU-145 > 100 µM | UO-31 > 100 µM | OVCAR-5 > 100 µM | M14 35.7 µM | UACC-257 > 100 µM | SK-OV-3 > 100 µM | SW-620 > 100 µM | NCI/ADR-RES > 100 µM | NCI-H226 > 100 µM | SR > 100 µM

COc1cc(C(N)=O)cc(NC(=O)/C=C/c2ccccc2)c1OC
inactive: KM12 > 100 µM | RPMI-8226 > 100 µM | MDA-MB-435 > 100 µM | SN12C > 100 µM | NCI-H460 > 100 µM | SK-MEL-28 > 100 µM | HOP-62 > 100 µM | SF-295 59.6 µM | 786-0 > 100 µM | A498 > 100 µM | DU-145 > 100 µM | UO-31 > 100 µM | OVCAR-5 > 100 µM | M14 > 100 µM | UACC-257 > 100 µM | SK-OV-3 49.4 µM | SW-620 > 100 µM | NCI/ADR-RES > 100 µM | SR 74.8 µM

CC(=O)O.CN1CCN(CN2C(=O)C3C4C=CC(C3C2=O)C2C3C(=O)N(CN5CCN(C)CC5)C(=O)C3C42)CC1 (stereo not given)
inactive: KM12 22.3 µM | RPMI-8226 22.2 µM | MDA-MB-435 17.1 µM | SN12C 21.4 µM | NCI-H460 16.3 µM | SK-MEL-28 28 µM | HOP-62 > 50 µM | 786-0 19.9 µM | A498 > 55.3 µM | DU-145 25.1 µM | UO-31 25.2 µM | OVCAR-5 23.9 µM | M14 18.9 µM | SW-620 22.2 µM | NCI/ADR-RES 24.2 µM | SR 13.4 µM

COc1ccc(C(=O)Sc2c(-c3ccccc3)c(=O)n(-c3ccccc3)c(=S)n2-c2ccccc2)cc1
inactive: KM12 > 100 µM | MDA-MB-435 > 100 µM | SN12C 41.7 µM | NCI-H460 > 100 µM | SK-MEL-28 81.5 µM | HOP-62 34.5 µM | SF-295 > 100 µM | 786-0 33.7 µM | A498 15.4 µM | DU-145 > 100 µM | OVCAR-5 > 100 µM | M14 68.7 µM | UACC-257 > 100 µM | SK-OV-3 > 100 µM | SW-620 > 100 µM | NCI/ADR-RES > 100 µM | NCI-H226 5.73 µM | SR 25.4 µM

CC(C)C(C/C=C1\CC(CO)(COC(=O)CC(C(C)C)C(C)C)OC1=O)C(C)C (stereo not given)
inactive: KM12 14.2 µM | MDA-MB-435 7.06 µM | SN12C 9.1 µM | NCI-H460 4.07 µM | SK-MEL-28 14.9 µM | HOP-62 5.08 µM | SF-295 4.62 µM | 786-0 7.03 µM | A498 11.7 µM | DU-145 8.85 µM | UO-31 6.87 µM | OVCAR-5 13.9 µM | M14 11.7 µM | UACC-257 15.6 µM | SK-OV-3 17.7 µM | SW-620 7.46 µM | NCI/ADR-RES 16 µM | NCI-H226 9.04 µM | SR 12.4 µM

CC1CCN(c2nnc(Cl)cc2C(=O)c2ccccc2)CC1
inactive: KM12 18 µM | MDA-MB-435 21.5 µM | SN12C 50.7 µM | NCI-H460 29.5 µM | SK-MEL-28 39.3 µM | HOP-62 28.4 µM | SF-295 24.7 µM | 786-0 41.7 µM | A498 35.7 µM | DU-145 38.3 µM | UO-31 23.1 µM | OVCAR-5 77.4 µM | M14 27 µM | UACC-257 18.7 µM | SW-620 22.1 µM | NCI/ADR-RES 36.6 µM | SR 17.5 µM

C=C[C@@]1(C)CC(=O)[C@]2(O)[C@@]3(C)[C@@H](OC(C)=O)CCC(C)(C)[C@@H]3[C@H](O)[C@H](OC(C)=O)[C@@]2(C)O1
inactive: KM12 13.4 µM | MDA-MB-435 > 100 µM | SN12C > 100 µM | NCI-H460 > 100 µM | SK-MEL-28 > 100 µM | HOP-62 > 100 µM | SF-295 > 100 µM | 786-0 83.6 µM | A498 > 100 µM | DU-145 > 100 µM | UO-31 > 100 µM | OVCAR-5 > 100 µM | M14 > 100 µM | UACC-257 > 100 µM | SK-OV-3 > 100 µM | SW-620 > 100 µM | NCI/ADR-RES > 100 µM | NCI-H226 > 100 µM | SR > 100 µM

N=C1/C(=C/c2ccccc2)C(=O)N=C2SC=NN12
inactive: KM12 > 100 µM | RPMI-8226 > 100 µM | MDA-MB-435 > 100 µM | SN12C > 100 µM | NCI-H460 > 100 µM | SK-MEL-28 > 100 µM | HOP-62 > 100 µM | SF-295 > 100 µM | 786-0 > 100 µM | DU-145 > 100 µM | UO-31 > 100 µM | OVCAR-5 > 100 µM | M14 > 100 µM | UACC-257 > 100 µM | SK-OV-3 > 100 µM | SW-620 > 100 µM | NCI/ADR-RES > 100 µM | NCI-H226 > 100 µM | SR > 100 µM

C/C=C(/COC(C)=O)C(=O)OC1C=C(C=O)C(C)(C)C=C1C (stereo not given)
inactive: KM12 > 100 µM | MDA-MB-435 > 100 µM | SN12C > 100 µM | NCI-H460 > 100 µM | SK-MEL-28 > 100 µM | SF-295 > 100 µM | 786-0 > 100 µM | A498 > 100 µM | DU-145 > 100 µM | UO-31 > 100 µM | OVCAR-5 > 100 µM | M14 > 100 µM | UACC-257 > 100 µM | SK-OV-3 > 100 µM | SW-620 > 100 µM | NCI/ADR-RES > 100 µM | NCI-H226 > 100 µM | SR 27.5 µM

COC(=O)C12C3C4(C(=O)OC)C1C1(C(=O)OC)C2C3(C(=O)OC)C41C(=O)N(C(C)C)C(C)C (stereo not given)
inactive: KM12 > 100 µM | MDA-MB-435 > 100 µM | SN12C > 100 µM | NCI-H460 > 100 µM | SK-MEL-28 > 100 µM | HOP-62 > 100 µM | SF-295 > 100 µM | 786-0 > 100 µM | A498 > 100 µM | DU-145 > 100 µM | UO-31 > 100 µM | OVCAR-5 > 100 µM | M14 > 100 µM | UACC-257 > 100 µM | SW-620 > 100 µM | NCI/ADR-RES > 100 µM | SR > 100 µM
